Reference: ChEMBL document CHEMBL5532680, “Identification of a Sonically Activated Degrader of Methionine Adenosyltransferase 2A by an in Silico Approach Assisted with the Hole-Electron Analysis” (J Med Chem, 2024)
The source made the active and inactive calls. No cut-off for these calls is given here.

Assays:
[1] = Induction of ROS generation in PBS at 10 uM incubated for 10 mins under 1.0 MHz, 1.2W/cm2 ultrasound treatment by DCFH staining based fluorescence assay; format: functional
[2] = test system: HCT-116; assay: Induction of apoptosis in MTAP knocked out human HCT-116 cells at 0.1 uM preincubated for 24 hrs followed by sonication for 4 mins by annexin V-FITC/PI staining based flow cytometry analysis relative to control; format: functional, cell-based; details: time 1444.0 min

SMILES	Activity [1]	Activity [2]
CCOc1ncc2cc(-c3ccc4c(c3)C3(CC3)CO4)c(=O)n(-c3ccc(OC(F)F)cc3)c2n1	Active	
CCOc1ncc2cc(-c3ccc4nc5n(c4c3)CCN(C(C)=O)C5)c(=O)n(-c3ccc(OC(F)F)cc3)c2n1	inactive	
CCOc1ncc2cc(-c3ccc4nc5n(c4c3)CCN(C)C5)c(=O)n(-c3ccc(OC(F)F)cc3)c2n1	inactive	Active
CCOc1ncc2cc(-c3ccc4c(c3)OCC3(CCN(C)CC3)O4)c(=O)n(-c3ccc(OC(F)F)cc3)c2n1	Active	
